The text below walks through data of US20220395464A1, “ORALLY ADMINISTERED SOLID DOSAGE FORM DRUG” (ASCENTAWITS PHARMACEUTICALS, LTD., priority 2019, published 2022).

pIC50: −log10 of the molar value.

This assay has as its system H460 non-small cell lung cancer. The experiment in a line: In vitro proliferation inhibition assay, 2 h exposure, Alamar Blue, with or without AKR1C3 inhibitor TH3021. Format: cell-based, human. Conditions: for pIC50: 2 h exposure, 70 h further incubation. As for the experimental part: The activities of the compounds were evaluated by a proliferation inhibition assay of active cancer cells in vitro.
In vitro proliferation data for a human tumor cell line of H460 non-small cell lung cancer were reported in a Table of compounds below.
IC50 values were in nanomoles and were obtained by the following procedure. Cells were exposed in the compounds with different concentration for 2 hours. Next, the compounds were washed off, and fresh medium was added into plates. Afterwards, a growth rate and a cell-survival rate were obtained by cell staining and compared with a control treated with the medium only.
Specifically speaking, the exponentially growing cells were seeded in 96-well plates at a density of 4×10^3 cells/well, and incubated for 24 hours at 37° C. in 5% CO2, 95% air and 100% relative humidity. Next, the compounds were added. Complementary, the compounds were dissolved in 100% DMSO at 200 times a desired final test concentration. The compounds were further diluted to 4 times the desired final test concentration with complete medium when the drug was added. A 50 μl aliquot of drug with the specific concentrations of the compounds was added to the 96-well plates already containing 150 μl of medium respectively to get the final test concentration reported. After the drug was added, the 96-well plates were incubated for 2 hours at 37° C. in 5% CO2, 95% air and 100% relative humidity. Then, the drug was washed off, and the 96-well plates were incubated for 70 hours at 37° C. in 5% CO2, 95% air and 100% relative humidity after adding the fresh medium. At the end of this incubation, Alamar Blue assay was used to quantify viable cells. The concentrations of the drug causing 50% growth inhibition (IC50) were calculated using computer software, and results are presented in a table below.
A cancer cell proliferation activity of the compounds with or without AKR1C3 enzyme inhibition was measured with and without adding TH3021 (with a sufficient inhibitory concentration), an inhibitor of AKR1C3.

In the case of `[2H]C([2H])([2H])N(C(=O)c1cccc(Oc2cc([C@H](C)OP(=O)(N3CC3)N3CC3)ccc2[N+](=O)[O-])c1)C([2H])([2H])[2H]` [AST-3424-D6], the pIC50 is 6.78 (H460, + TH3021 (inhibitor of AKR1C3)); 6.96 (Homo sapiens, NCI-H460, H460, + TH3021 (inhibitor of AKR1C3)); greater than 8.34 (Homo sapiens, NCI-H460, H460, without TH3021). Besides, the “In vitro activity compared with AST-3424, in words” value (H460, FIG. 1 and Table 12) is reported as “similar”.
